The results in this text go back to patent publication US20240174691A1, “PYRIMIDINE-FUSED CYCLIC COMPOUND, PREPARATION METHOD THEREFOR AND USE THEREOF” (GENFLEET THERAPEUTICS (SHANGHAI) INC., priority 2021, published 2024).

pIC50: −log10 of the molar value.

What all share (assay type): cell-based, human
Test [1] has as its system p-ERK in AGS cells containing the KRAS G12D mutation. Briefly: Cell p-ERK assay (HTRF, Advance ERK phospho-T202/Y204 kit). Conditions: 3 hours incubation with compound. On the procedure: AGS was purchased from ATCC; catalog No: CRL-1739; F12K was purchased from Gibco; catalog No: 21127-022; FBS was purchased from Gibco; catalog No: 10099-141C; trypsin (containing EDTA) was purchased from Gibco; catalog No: 25200-072; DMSO was purchased from VWRAMMESCO; catalog No: 0231-500ML; 96-well cell culture plates were purchased from Corning; catalog No: 3599; opaque 96-well plates with a white background were purchased from Cisbio; catalog No: 66PL96025; Advance ERK phospho-T202/Y204 kit was purchased from Cisbio; catalog No: 64AERPEH; cell counters were purchased from CHEMOMETEC; model No: NC-200; microplate reader was purchased from PerkinElmer; model No: Envison.
AGS is an endogenous human gastric adenocarcinoma cell line containing the KRAS^G12D mutation, cultured in F12K+10% FBS medium. On the first day of the experiment, cells in the logarithmic growth phase were taken, digested with trypsin (containing EDTA), collected, and counted. Approximately 20000 cells/well were seeded in a 96-well cell culture plate and cultured overnight in an incubator with 5% CO2. 1000× stock solutions of compounds at a 3.16-fold concentration gradient were prepared using DMSO, and diluted 200-fold into a 5× compound stock solution using the medium described above. The 5× compound stock solution was added to each cell culturing well the day after cell seeding at a final concentration of 1× and a DMSO content of 0.1%. DMSO was used as an experimental control. After the compound was added and the incubation was kept for 3 hours, the medium in the culture wells was removed. 50 μl of Cell lysis solution (from Advance ERK phospho-T202/Y204 kit, the same below) was added to each well, mixed well, and incubated for 30 minutes and then 16 μl of the mixed solution was transferred to an opaque 96-well plate with a white background. In addition, 16 μl of cell lysis solution was added to a well as a blank well. After transferring, 4 μl of p-ERK HTRF antibody mixture (from Advance ERK phospho-T202/Y204 kit) was added to each well. After incubation for 4 hours, HTRF fluorescence value (RLU) was read by a microplate reader, and p-ERK level inhibition rate (IR (%)=(RLU control−RLU compound)/(RLU control−RLU blank)×100%) of the compounds was calculated. The concentration of the compounds and corresponding cell p-ERK level inhibition rate were fitted using Prism 8 four-parameters method, and the IC50 value was calculated.
For orientation: Time-resolved FRET reads energy transfer from a long-lived donor to a nearby acceptor.

A further test concerns AGS cells (KRAS G12D). Briefly: Cell proliferation inhibition assay, 3D cell model (CellTiter-Glo 3D), AGS. The conditions noted are these: AGS 3D sphere plate, 5 days incubation. From the text: (§1) AsPC-1 was purchased from ATCC; catalog No: CRL-1682; AGS was purchased from ATCC; catalog No: CRL-1739; RPMI1640 was purchased from Gibco; catalog No: 11875-093 2235123; F12K was purchased from Gibco; catalog No: 21127-022; FBS was purchased from Gibco; catalog No: 10099-141C; trypsin (containing EDTA) was purchased from Gibco; catalog No: 25200-072; CellTiter Glo-3D was purchased from Progema; catalog No: G9683; 384-well sphere plates were purchased from Corning; catalog No: 3830; opaque 384-well plates with a white background were purchased from Corning; catalog No: 3570; cell counters were purchased from CHEMOMETEC; model: NC-200; microplate reader was purchased from PerkinElmer; model: Envison;
(§2) AsPC-1 is an endogenous human pancreatic cancer cell containing KRAS^G12D mutation, cultured in RPMI-1640 medium containing 10% FBS; AGS is a human gastric cancer cell line containing KRAS^G12D, cultured in F-12K medium containing 10% FBS. Cells in the logarithmic growth phase were taken, digested with trypsin (containing EDTA), collected, and counted. 800 AsPC-1 cells/well or 400 AGS cells/well, respectively, were seeded in a 384-well sphere plate and cultured overnight at 5% CO2 to establish a 3D cell model. 1000× stock solutions of compounds at a 3.16-fold concentration gradient of were prepared using DMSO, diluted 100-fold into a 10× compound stock solution using the medium described above. The 10× compound stock solution was added to each cell on 2nd day after cell seeding at a final concentration of 1× and a DMSO content of 0.1%. DMSO was used as an experimental control, and the medium was used as blank. After the addition of the compounds, the cells were incubated for 5 days. 30 μl of CellTiter-Glo work solution was added to each well, mixed well, and incubated for 30 minutes. After standing at room temperature for 30 minutes, 40 μl of the mixed solution was transferred to an opaque 384-well plate with a white clear bottom. Luminescence chemiluminescence value was read by a microplate reader, and the cell proliferation inhibition rate (IR (%)=(RLU control−RLU compound)/(RLU control−RLU blank)×100%) was calculated. The gradiently diluted concentration of the compounds and corresponding cell proliferation inhibition rate were fitted using XLFit four-parameters method, and the IC50 value was calculated.

Another test concerns AsPC-1 cells (KRAS G12D). In words: Cell proliferation inhibition assay, 3D cell model (CellTiter-Glo 3D), AsPC-1. The conditions noted are these: AsPC-1 3D sphere plate, 5 days incubation.
From the text: as §1, §2
Background: Cellular ATP, detected with luciferase, serves as a proxy for viable cell number.

As for `CCc1cccc2cc(O)cc(-c3cc4nc(OC[C@@]56CCCN5C[C@H](F)C6)nc5c4c(n3)OC[C@@H]3[C@@H]4CC[C@H](CN53)N4)c12` [Z2, 5-ethyl-4-((5aS,6S,9R)-12-(((2R,7aS)-2-fluorotetrahydro-1H-pyrrolizin-7a(5H)-yl)methoxy)-5a,6,7,8,9,10-hexahydro-5H-4-oxa-3,10a,11,13,14-pentaaza-6,9-methanonaphtho[1,8-ab]hepten-2-yl)naphthalen-2-ol], the pIC50 in test [1] (Homo sapiens) was 7.97; in the test on AGS cells (KRAS G12D) (Homo sapiens, 120 h), 7.99; in the test on AsPC-1 cells (KRAS G12D) (Homo sapiens, ASPC1, 120 h), 6.90.
Take `C#Cc1c(F)ccc2cc(O)cc(-c3nc4c5c(nc(OC[C@@]67CCCN6C[C@H](F)C7)nc5c3F)N3C[C@H]5CC[C@H](N5)[C@H]3CO4)c12` [Z131-1]: the pIC50 is 8.80 in test [1] (Homo sapiens); 8.60 in the test with AGS cells (KRAS G12D) (Homo sapiens, 120 h); 7.48 in the test with AsPC-1 cells (KRAS G12D) (Homo sapiens, ASPC1, 120 h).
`CCc1cccc2cc(O)cc(-c3nc4c5c(nc(OC[C@@]67CCCN6C[C@H](F)C7)nc5c3F)N3C[C@H]5CC[C@H](N5)[C@H]3CO4)c12` [Z140-1, 5-ethyl-4-((5aS,6S,9R)-1-fluoro-12-(((2R,7aS)-2-fluorotetrahydro-1H-pyrrolizin-7a(5H)-yl)methoxy)-5a,6,7,8,9,10-hexahydro-5H-4-oxa-3,10a,11,13,14-pentaaza-6,9-methanonaphtho[1,8-ab]hepten-2-yl)naphthalen-2-ol]: the negative-log IC50 (pIC50) in test [1] was 8.55; in the test on AGS cells (KRAS G12D), 8.40; in the test with AsPC-1 cells (KRAS G12D), 7.68.
On to `C#Cc1cccc2cccc(-c3nc4c5c(nc(OC[C@@]67CCCN6C[C@H](F)C7)nc5c3F)N3C[C@H]5CC[C@H](N5)[C@H]3CO4)c12` [Z350, (5aS,6S,9R)-2-(8-ethynaphthalen-1-yl)-1-fluoro-12-(((2R,7aS)-2-fluorotetrahydro-1H-pyrrolizin-7a(5H)-yl)methoxy)-5a,6,7,8,9,10-hexahydro-5H-4-oxo-3,10a,11,13,14-pentaaza-6,9-methanonaphtho[1,8-ab]heptene], for which the pIC50 in test [1] (Homo sapiens) was 7.33; with AGS cells (KRAS G12D) (Homo sapiens, 120 h) it was 6.74; in the test on AsPC-1 cells (KRAS G12D) (Homo sapiens, ASPC1, 120 h), 6.69.
As to `CCc1cccc2cc(O)cc(-c3cc4nc(OC[C@@]56CCCN5C[C@H](F)C6)nc5c4c(c3Cl)OC[C@@H]3[C@@H]4CC[C@H](CN53)N4)c12` [Z381, 4-((5aS,6S,9R)-3-chloro-13-((2R,7aS)-2-fluorotetrahydro-1H-pyrrolizin-7a(5H)-ylmethoxy)-5a,6,7,8,9,10-hexahydro-5H-6,9-epiminoazepino[2′,1′:3,4][1, 4]oxazepino[5,6,7-de]quinazolin-2-yl)-5-ethylnaphthalen-2-ol], in test [1] (Homo sapiens), the pIC50 is 6.36.

For orientation: pIC50 means −log10 of the IC50, conventionally taken in molar units.
